Values of other authors as cited in US7456023B2, “Reagent for luminescence optical determination of an analyte” (Roche Diagnostics Operations, Inc., priority 2000, dated 2008).

Columns and labels:
[1] = for Absorption wavelength, deprotonated: deprotonated form; for Absorption wavelength, protonated: protonated form

Row | Molecule | Absorption wavelength, deprotonated [1] | Absorption wavelength, protonated [1] | pKa
1 | O=S1(=O)OC(c2cc(Br)c(O)c(Br)c2)(c2cc(Br)c(O)c(Br)c2)c2ccccc21 [Bromophenol blue] | 617 nm | 430 nm | –
2 | Cc1c(C2(c3cc(C(C)C)c(O)c(Br)c3C)OS(=O)(=O)c3ccccc32)cc(C(C)C)c(O)c1Br [Bromothymol blue] | 615-618 nm | 430-435 nm | –
3 | Cc1ccc(O)c(N=Nc2c(O)cc(S(=O)(=O)O)c3ccccc23)c1 [Calmagit] | 605 nm | 530 nm | –
4 | O=C1OC(c2ccc(O)c3ccccc23)(c2ccc(O)c3ccccc23)c2ccccc21 [Naphthol-phthalein] | 661 nm | 428 nm | –
5 | O=C1C=CC(=Nc2ccc(O)cc2)C=C1Cl [o-chlorophenol-indophenol] | 625 nm | 555 nm | –
6 | Dibromoxylenol blue | 614 nm | 420 nm | –
7 | Nitrazine yellow | 590 nm | 460 nm | 6.5
